Assay results taken from patent US20260265239A1, “CRYSTAL FORM OF 2,6-PIPERIDINEDIONE COMPOUND, AND PREPARATION METHOD THEREFOR AND USE THEREOF” (ZHANGZHOU PIEN TZE HUANG PHARMACEUTICAL CO., LTD., priority 2023, published 2026).
Where a name gives a salt, the structure may show the parent alone.

Assays:
[1] = Pharmacokinetic evaluation in mice; assay type: in vivo, C57BL/6 or C57 male mice
Text: C57BL/6 or C57 male mice were selected as the test animals for this study. The LC/MS/MS method was employed to quantitatively determine the plasma drug concentrations at various time points after intravenous injection or intragastric administration of the test compound, aiming to evaluate the pharmacokinetic characteristics of the compound of the present disclosure in mice.
C57BL/6 or C57 mice (male, 20 to 30 g, 7 to 10 weeks old, Beijing Vital River).
A clear solution of the test compound was injected intravenously into the tail vein of C57BL/6 mice (fasted overnight) (vehicle: 10% DMSO/10% solutol/80% H2O), or administered intragastrically to C57 mice (fed). […] The mixture was thoroughly vortexed and mixed, and centrifuged at 6000 g for 3 minutes at 2 to 8° C. […] The mixture was thoroughly vortexed and mixed, and centrifuged at 6000 g for 3 minutes at 2 to 8° C. Plasma drug concentrations were determined by the LC-MS/MS method, and relevant pharmacokinetic parameters were calculated using Phoenix WinNonlin 8.2.0 pharmacokinetic software with non-compartmental model linear-log trapezoidal method.

[2] = system: SU-DHL-2; test: Anti-proliferative effect in lymphoma cell line SU-DHL-2 (CellTiter-Glo); assay type: cell-based, human
Procedure: Objective: This experiment was conducted to detect the inhibitory effect of the compound of formula (I) on cell proliferation in the lymphoma cell line SU-DHL-2.
The tumor cell lines were cultured under the above culture conditions in an incubator at 37° C. and 5% CO2. The cells were passaged periodically, and those in the logarithmic growth phase were harvested for seeding.
• (1) The cells were stained with trypan blue, and the viable cells were counted. • (2) The cell concentration was adjusted to an appropriate concentration.
• (3) 50 μL of cell suspension was added to each well of the culture plate as shown in the figure above. • (4) The culture plate was incubated overnight in an incubator at 37° C., 5% CO2, and 100% relative humidity.
The drug was administered with an Echo655 instrument. A dosing volume of 50 nL was used, with a final DMSO concentration of 0.1%. The culture plate was centrifuged at 1000 rpm for 1 min and incubated at 37° C., 5% CO2, and 100% relative humidity for 4 days. […]

[3] = Pharmacokinetic evaluation in beagle dogs; assay type: in vivo
Text: Male beagle dogs were selected as the experimental animals in this study. The LC/MS/MS method was employed to quantitatively determine the plasma drug concentrations at different time points after intravenous injection or intragastric administration of the test compound, aiming to evaluate the pharmacokinetic characteristics of the compound of the present disclosure in beagle dogs.
Beagle dogs (male, 7 to 10 kg, Beijing Mars Biotechnology Co., Ltd.).
A solution of the test compound was slowly injected intravenously into beagle dogs (fed) via the peripheral vein (vehicle: 5% DMSO/10% Solutol/85% H2O), or administered intragastrically to beagle dogs (fed). For intravenous administration, 0.5 mL of blood was collected from the peripheral vein at 0.083, 0.25, 0.5, 1, 2, 4, 6, 8, and 24 h after administration, placed in EDTA-2K anticoagulant tubes, and centrifuged at 3200 g for 10 minutes at 2 to 8° C. to separate the supernatant. For intragastric administration, 0.5 mL of blood was collected from the peripheral vein at 0.083, 0.25, 0.5, 1, 2, 4, 6, 8, and 24 h after administration, placed in EDTA-2K anticoagulant tubes, and centrifuged at 3200 g for 10 minutes at 2 to 8° C. to separate the supernatant. Plasma drug concentrations were determined by the LC-MS/MS method, and relevant pharmacokinetic parameters were calculated using Phoenix WinNonlin 6.3 or 8.3.5 pharmacokinetic software with non-compartmental model linear-log trapezoidal method.

[4] = Intragastric administration (10 mg/kg) (fed)
[5] = Intragastric administration, 5 mg/kg
[6] = Intragastric administration, 15 mg/kg
[7] = Intravenous Injection (0.5 mg/kg)

In the case of O=C1CCC(c2noc3ccc4c(NC(=O)CN5CCN(C[C@H]6CC[C@H](n7cc(NC(=O)c8coc(-c9ccnc(NCC%10CC%10)c9)n8)c(C(F)F)n7)CC6)CC5)cccc4c23)C(=O)N1 (stereo partly shown) [Hydrochloride of Compound of Formula (I)], the “Area Under the Drug-Time Curve (0-inf)” value [1, 4] is reported as 4.47 µM·h, the “Peak Concentration” value [1, 4] is reported as 0.54 µM and the “Time to Peak Concentration” value [1, 4] is reported as 1.00 h. The “Area Under the Drug-Time Curve (0-inf)” value ([1]; Intravenous Injection (2 mg/kg) (fasted)) was 5.40 µM·h, the “inhibitory effect on cell proliferation (conclusion)” value [2] was “excellent inhibitory effect” and the “Area Under the Drug-Time Curve (0-inf)” value [3, 5] was 3.20 µM·h. For the same compound, the “Peak Concentration” value [3, 5] was 0.41 µM, the “Time to Peak Concentration” value [3, 5] was 4.00 h and the “Area Under the Drug-Time Curve (0-inf)” value [3, 6] was 8.02 µM·h. For the same compound, the “Peak Concentration” value [3, 6] was 0.87 µM, the “Time to Peak Concentration” value [3, 6] was 4.00 h and the “Apparent Distribution Volume” value [3, 7] was 5.83 L/kg. The “Area Under the Drug-Time Curve (0-inf)” value [3, 7] was 0.44 µM·h.
